Results: patent publication US7585874B2, “Aryl-isoxazol-4-yl-imidazo[1,2-a]pyridine derivatives” (Hoffmann-La Roche Inc., priority 2006, dated 2009)

Biological target: T1, GABA A receptor α5β3γ2 (Homo sapiens, UniProt P18507+P31644)
T1 construct: expressed in transfected cells; host or cells: HEK293 (transiently transfected; membranes)
Assay: [3H]flumazenil competition binding, membranes of HEK293 cells expressing human GABA A α5β3γ2
Conditions: human α5β3γ2 in HEK293 (transiently transfected); 0.5 nM [3H]flumazenil; 1 hour at 4° C.; means of two determinations; read-out: Ki[nM]hα5
Method: The affinity of compounds at GABA A receptor subtypes was measured by competition for [3H]flumazenil (85 Ci/mmol; Roche) binding to HEK293 cells expressing rat (stably transfected) or human (transiently transfected) receptors of composition α1β3γ2, α2β3γ2, α3β3γ2 and α5β3γ2.
Cell pellets were suspended in Krebs-tris buffer (4.8 mM KCl, 1.2 mM CaCl2, 1.2 mM MgCl2, 120 mM NaCl, 15 mM Tris; pH 7.5; binding assay buffer), homogenized by polytron for ca. 20 sec on ice and centrifuged for 60 min at 4° C. (50000 g; Sorvall, rotor: SM24=20000 rpm). The cell pellets were resuspended in Krebs-tris buffer and homogenized by polytron for ca. 15 sec on ice. Protein was measured (Bradford method, Bio-Rad) and aliquots of 1 mL were prepared and stored at −80° C.
Radioligand binding assays were carried out in a volume of […] (96-well plates) which contained […] of cell membranes, [3H]flumazenil at a concentration of 1 nM for α1, α2, α3 subunits and 0.5 nM for α5 subunits and the test compound in the range of […]. Nonspecific binding was defined by 10^−5 M diazepam and typically represented less than 5% of the total binding. Assays were incubated to equilibrium for 1 hour at 4° C. and harvested onto GF/C uni-filters (Packard) by filtration using a Packard harvester and washing with ice-cold wash buffer 50 mM Tris; pH 7.5). After drying, filter-retained radioactivity was detected by liquid scintillation counting. Ki values were calculated using Excel-Fit (Microsoft) and are the means of two determinations.

Row | SMILES | Ki [nM]
1 | Cc1ccn2cc(-c3c(-c4ccccc4)noc3C)nc2c1 [Example 8, 7-Methyl-2-(5-methyl-3-phenyl-isoxazol-4-yl)-imidazo[1,2-a]pyridine] | 81.7
2 | Cc1ccc2nc(-c3c(-c4ccccc4)noc3C)cn2c1 [Example 24, 6-Methyl-2-(5-methyl-3-phenyl-isoxazol-4-yl)-imidazo[1,2-a]pyridine] | 33.1
3 | Cc1onc(-c2ccccc2)c1-c1cn2cc(C(=O)NCCN3CCOCC3)ccc2n1 [Example 38, 2-(5-Methyl-3-phenyl-isoxazol-4-yl)-imidazo[1,2-a]pyridine-6-carboxylic acid (2-morpholin-4-yl-ethyl)-amide] | 174
4 | Cc1onc(-c2ccccc2)c1C(=O)COc1cccn2cc(-c3c(-c4ccccc4)noc3C)nc12 [Example 7, 1-(5-Methyl-3-phenyl-isoxazol-4-yl)-2-[2-(5-methyl-3-phenyl-isoxazol-4-yl)-imidazo[1,2-a]pyridin-8-yloxy]-ethanone] | 126
5 | C#CCNC(=O)c1ccc2nc(-c3c(-c4ccccc4)noc3C)cn2c1 [Example 32, 2-(5-Methyl-3-phenyl-isoxazol-4-yl)-imidazo[1,2-a]pyridine-6-carboxylic acid prop-2-ynylamide] | 44.5
6 | Cc1onc(-c2ccccc2)c1-c1cn2ccc(C(=O)NCc3ccco3)cc2n1 [Example 23, 2-(5-Methyl-3-phenyl-isoxazol-4-yl)-imidazo[1,2-a]pyridine-7-carboxylic acid (furan-2-ylmethyl)-amide] | 183
7 | COC(=O)c1ccc2nc(-c3c(-c4ccccc4)noc3C)cn2c1 [Example 29, 2-(5-Methyl-3-phenyl-isoxazol-4-yl)-imidazo[1,2-a]pyridine-6-carboxylic acid methyl ester] | 117
8 | Cc1onc(-c2ccccc2)c1-c1cn2cc(I)ccc2n1 [Example 52, 6-Iodo-2-(5-methyl-3-phenyl-isoxazol-4-yl)-imidazo[1,2-a]pyridine] | 143
9 | Cc1onc(-c2ccccc2)c1-c1cn2ccc(C(=O)NC3CCOCC3)cc2n1 [Example 17, 2-(5-Methyl-3-phenyl-isoxazol-4-yl)-imidazo[1,2-a]pyridine-7-carboxylic acid (tetrahydro-pyran-4-yl)-amide] | 96
10 | Cc1onc(-c2ccccc2)c1-c1cn2ccc(NC(=O)C3CCCC3)cc2n1 [Example 50, Cyclopentanecarboxylic acid [2-(5-methyl-3-phenyl-isoxazol-4-yl)-imidazo[1,2-a]pyridin-7-yl]-amide] | 85.9
11 | Cc1onc(-c2ccccc2)c1-c1cn2ccc(N)cc2n1 [Example 46, 2-(5-Methyl-3-phenyl-isoxazol-4-yl)-imidazo[1,2-a]pyridin-7-ylamine] | 90.3
12 | Cc1onc(-c2ccccc2)c1-c1cn2cc(C(=O)NCc3ccco3)ccc2n1 [Example 43, 2-(5-Methyl-3-phenyl-isoxazol-4-yl)-imidazo[1,2-a]pyridine-6-carboxylic acid (furan-2-ylmethyl)-amide] | 36.9
13 | Cc1onc(-c2ccccc2)c1-c1cn2ccc(C(=O)NCc3ccncc3)cc2n1 [Example 22, 2-(5-Methyl-3-phenyl-isoxazol-4-yl)-imidazo[1,2-a]pyridine-7-carboxylic acid (pyridin-4-ylmethyl)-amide] | 199
14 | Cc1onc(-c2ccccc2)c1-c1cn2cc(C#N)ccc2n1 [Example 28, 2-(5-Methyl-3-phenyl-isoxazol-4-yl)-imidazo[1,2-a]pyridine-6-carbonitrile] | 173
15 | CCOC(=O)c1ccc2nc(-c3c(-c4ccccc4)noc3C)cn2c1 [Example 30, 2-(5-Methyl-3-phenyl-isoxazol-4-yl)-imidazo[1,2-a]pyridine-6-carboxylic acid ethyl ester] | 154
16 | Cc1onc(-c2ccccc2)c1-c1cn2ccc(NC(=O)C3CC3)cc2n1 [Example 48, Cyclopropanecarboxylic acid [2-(5-methyl-3-phenyl-isoxazol-4-yl)-imidazo[1,2-a]pyridin-7-yl]-amide] | 79.4
17 | C#CCNC(=O)c1ccn2cc(-c3c(-c4ccccc4)noc3C)nc2c1 [Example 12, 2-(5-Methyl-3-phenyl-isoxazol-4-yl)-imidazo[1,2-a]pyridine-7-carboxylic acid prop-2-ynylamide] | 72.3
18 | Cc1onc(-c2ccccc2)c1-c1cn2cccc(Cl)c2n1 [Example 3, 8-Chloro-2-(5-methyl-3-phenyl-isoxazol-4-yl)-imidazo[1,2-a]pyridine] | 126
19 | Cc1onc(-c2ccccc2)c1-c1cn2ccc(C(=O)NCCO)cc2n1 [Example 16, 2-(5-Methyl-3-phenyl-isoxazol-4-yl)-imidazo[1,2-a]pyridine-7-carboxylic acid (2-hydroxy-ethyl)-amide] | 114
20 | c1ccc(-c2noc(C3CC3)c2-c2cn3ccccc3n2)cc1 [Example 68, 2-(5-Cyclopropyl-3-phenyl-isoxazol-4-yl)-imidazo[1,2-a]pyridine] | 5.5
21 | Cc1onc(-c2ccccc2)c1-c1cn2cc(C(=O)NC3CCC3)ccc2n1 [Example 34, 2-(5-Methyl-3-phenyl-isoxazol-4-yl)-imidazo[1,2-a]pyridine-6-carboxylic acid cyclobutylamide] | 19.8
22 | C#Cc1ccn2cc(-c3c(-c4ccccc4)noc3C)nc2c1 [Example 45, 7-Ethynyl-2-(5-methyl-3-phenyl-isoxazol-4-yl)-imidazo[1,2-a]pyridine] | 189
23 | Cc1onc(-c2ccccc2)c1-c1cn2cccc(O)c2n1 [Example 5, 2-(5-Methyl-3-phenyl-isoxazol-4-yl)-imidazo[1,2-a]pyridin-8-ol] | 20.2
24 | Cc1onc(-c2ccccc2)c1-c1cn2cc(C(=O)NCc3ccncc3)ccc2n1 [Example 42, 2-(5-Methyl-3-phenyl-isoxazol-4-yl)-imidazo[1,2-a]pyridine-6-carboxylic acid (pyridin-4-ylmethyl)-amide] | 85.5
25 | Cc1onc(-c2ccccc2)c1-c1cn2cc(NC(=O)C3CCCC3)ccc2n1 [Example 59, Cyclopentanecarboxylic acid [2-(5-methyl-3-phenyl-isoxazol-4-yl)-imidazo[1,2-a]pyridin-6-yl]-amide] | 54.7
26 | Cc1onc(-c2ccccc2)c1-c1cn2cc(-n3cccc3)ccc2n1 [Example 64, 2-(5-Methyl-3-phenyl-isoxazol-4-yl)-6-pyrrol-1-yl-imidazo[1,2-a]pyridine] | 73.2
27 | Cc1onc(-c2ccccc2)c1-c1cn2cc(C(=O)NCc3cccnc3)ccc2n1 [Example 41, 2-(5-Methyl-3-phenyl-isoxazol-4-yl)-imidazo[1,2-a]pyridine-6-carboxylic acid (pyridin-3-ylmethyl)-amide] | 41.2
28 | Cc1onc(-c2ccccc2)c1-c1cn2cc(N3CCCC3=O)ccc2n1 [Example 63, 1-[2-(5-Methyl-3-phenyl-isoxazol-4-yl)-imidazo[1,2-a]pyridin-6-yl]-pyrrolidin-2-one] | 48.7
29 | Cc1onc(-c2ccccc2)c1-c1cn2ccccc2n1 [Example 1, 2-(5-Methyl-3-phenyl-isoxazol-4-yl)-imidazo[1,2-a]pyridine] | 167
